Measured values taken from US8324172B2, “G protein coupled receptor agonists and antagonists and methods of activating and inhibiting G protein coupled receptors using the same” (Tufts Medical Center, Inc., priority 2000, dated 2012).
Positions count from the first letter of the chain named. Values joined by “and” are separate entries in the source; they are usually repeats but may differ in a detail not shown here. Identical values can stand only once. Where a SMILES comes first, the peptide text is derived from it. The star is where a group is joined. Palmitoyl = CCCCCCCCCCCCCCCC(=O)*

Key:
[1] = tested on: MDA-MB-231 breast cancer cells; experiment: Chemoinvasion of MDA-MB-231 breast cancer cells (Transwell); format: cell-based, human; details: NIH3T3 conditioned medium
Experimental: Experiments were performed in order to determine if application of pepducins based on the i3 loops of PAR1, PAR2, or PAR4 would inhibit migration and invasion of breast cancer cells. It was determined that the highly invasive MDA-MB-231 breast cancer cell line expressed very high levels of functional PAR1, PAR2 and PAR4. […] Pepducins were added with NIH3T3 Conditioned medium (CM) to the bottom well of a Transwell apparatus.

[2] = tested on: TXA2, ADP, collagen, or GPIb/IX/V receptors; experiment: Inhibition of human platelet aggregation induced by U46619, ADP, collagen or ristocetin; format: cell-based; details: 5 μM pepducin, ristocetin
Description: 84, 1440 (1989)) and von Willebrand factor (GPIb/IX/V) (Savage et al., Cell 94, 657 (1998)) using platelets as the biologically-relevant system.

PAR4 [3] = target: T1, PAR4 (Homo sapiens, UniProt Q96RI0); experiment: Inhibition of PAR4-dependent platelet Ca2+ signal (AYPGKF); format: cell-based; details: 3 micromolar pepducin; 200 Micromolar AYPGKF
T1 sequence (Q96RI0 18-385): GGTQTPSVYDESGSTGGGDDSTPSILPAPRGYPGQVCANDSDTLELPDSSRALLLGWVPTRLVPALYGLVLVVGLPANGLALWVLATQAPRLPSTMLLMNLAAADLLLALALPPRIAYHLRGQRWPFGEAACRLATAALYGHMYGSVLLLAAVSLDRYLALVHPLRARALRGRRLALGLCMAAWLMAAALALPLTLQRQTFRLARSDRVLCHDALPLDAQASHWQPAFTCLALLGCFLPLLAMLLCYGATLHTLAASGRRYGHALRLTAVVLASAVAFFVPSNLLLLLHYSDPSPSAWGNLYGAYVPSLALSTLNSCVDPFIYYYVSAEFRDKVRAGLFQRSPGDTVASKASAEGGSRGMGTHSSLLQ
Experimental: (§1) Platelet Ca2+ measurements were performed as in Example 1.
(§2) The integrated Ca^2+ response for the individual treatments are relative to the full Ca^2+ responses for each agonist (100%) recorded in the absence of P4pal-10 (top trace).

[4] = tested on: thrombin receptors on human platelets; experiment: Inhibition of thrombin-induced human platelet aggregation; details: 3 μM pepducin
PAR4 [5] = target: T1, PAR4; experiment: Inhibition of AYPGKF-induced human platelet aggregation; format: cell-based; details: AYPGKF
PAR1 [6] = target: T2, PAR1 (Homo sapiens, UniProt P25116); experiment: Inhibition of SFLLRN-induced human platelet aggregation; format: cell-based; details: 3 μM pepducin, 1 min preincubation
T2 construct: expressed in transfected cells
T2 sequence (P25116 22-425): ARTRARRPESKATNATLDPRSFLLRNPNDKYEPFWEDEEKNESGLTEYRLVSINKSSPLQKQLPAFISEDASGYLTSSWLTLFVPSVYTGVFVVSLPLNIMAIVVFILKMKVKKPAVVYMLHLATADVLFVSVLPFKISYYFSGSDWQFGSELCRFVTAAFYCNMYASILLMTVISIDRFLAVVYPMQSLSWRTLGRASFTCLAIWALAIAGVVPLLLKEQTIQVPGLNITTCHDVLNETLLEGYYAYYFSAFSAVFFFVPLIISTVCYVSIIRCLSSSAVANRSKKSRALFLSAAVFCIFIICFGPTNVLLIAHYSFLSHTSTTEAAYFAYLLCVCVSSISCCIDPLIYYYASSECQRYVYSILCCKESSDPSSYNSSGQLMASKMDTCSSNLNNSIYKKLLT

PAR1 [7] = target: T2, PAR1; experiment: Inhibition of PAR1-dependent platelet Ca2+ signal; format: cell-based; details: SFLLRN (or thrombin) after peptide pre-treatment
Experimental: as §1, §2

[8] = Tail bleeding time and rebleeding in mice; details: 3 μmoles/L i.v.
PAR1 [9] = target: T2, PAR1; experiment: InsP formation in COS7 cells transiently transfected with wild-type PAR1; format: cell-based
PAR4 [10] = target: T1, PAR4; experiment: InsP formation in COS7 cells expressing PAR4; format: cell-based; parameters: expressed in transfected cells; host or cells: COS7, transient
murine platelets (PAR4) = experiment: Aggregation of washed murine platelets; details: read-out: EC50 of aggregation of murine platelets
delta377 PAR1 = experiment: InsP formation in COS7 cells expressing delta377 (C-tail deleted) PAR1 mutant; format: cell-based, human; details: relative to wild type PAR1
S309P PAR1 = target: T3, S309P PAR1 (Homo sapiens, UniProt P25116, S309P); experiment: InsP formation in COS7 cells expressing S309P PAR1 mutant; format: cell-based; details: relative to wild type PAR1
T3 construct: expressed in transfected cells; host or cells: COS7, transient
T3 sequence (P25116 22-425 S309P): T2 sequence (P25116 22-425) with S288P

PAR1 [11] = target: T2, PAR1; experiment: InsP formation (PLC-β) in Rat1 fibroblasts expressing human PAR1; format: cell-based; details: 0.1 nM thrombin

For `CCCCCCCCCCCCCCCC(=O)N[C@@H](CCCCN)C(=O)N[C@@H](CCCCN)C(=O)N[C@@H](CO)C(=O)N[C@@H](CCCNC(=N)N)C(=O)N[C@@H](C)C(=O)N[C@@H](CC(C)C)C(=O)N[C@@H](Cc1ccccc1)C(N)=O` [Pepducin P1pal-7, Pal-KKSRALF] (Palmitoyl-KKSRALF-NH2), the “agonist activity in platelet aggregation” value (human platelets) was “loss of stimulatory activity” and the inhibition of chemoinvasion [1] was 30%.
For `CCCCCCCCCCCCCCCC(=O)N[C@@H](CCCNC(=N)N)C(=O)N[C@@H](CS)C(=O)N[C@@H](CC(C)C)C(=O)N[C@@H](CO)C(=O)N[C@@H](CO)C(=O)N[C@@H](CO)C(=O)N[C@@H](C)C(=O)N[C@H](C(=O)N[C@@H](C)C(=O)N[C@@H](CC(N)=O)C(=O)N[C@@H](CCCNC(=N)N)C(=O)N[C@@H](CO)C(N)=O)C(C)C` [Pepducin P1pal-12] (Palmitoyl-RCLSSSAVANRS-NH2), the “agonist activity in platelet aggregation” value (human platelets) was “loss of stimulatory activity”, the “block of aggregation by ligands of other platelet receptors” value [2] was “did not block aggregation” and the “inhibition of PAR4-dependent Ca2+ response” value (PAR4 [3]) was “does not block PAR4 activation”. For the same compound, the inhibition of aggregation ([4]; 3 nM thrombin, 1 min) was “completely blocked aggregation”, the inhibition of aggregation ([4]; 20 nM thrombin) was “not appreciably blocked” and the “inhibition of PAR4-dependent platelet aggregation” value (PAR4 [5]) was “does not inhibit PAR4-dependent platelet aggregation”. For the same compound, the aggregation blocked (PAR1 [6]) was 75-95%, the “inhibition of PAR1-dependent Ca2+ response” value (PAR1 [7]) was “effectively inhibits PAR1 activation” and the “inhibition of PAR1-dependent Ca2+ response” value (PAR1 [7]; listed as P1pal12) was “completely block PAR1 signaling”. For the same compound, the “effect on tail-bleeding time” value [8] was “did not prolong tail-bleeding time”, the “mean total bleeding time” value [8] was 95 s and the “re-bleeding / unstable haemostasis” value [8] was “did not prolong tail-bleeding time or result in unstable haemostasis”. For the same compound, the “re-bleeding / unstable haemostasis” value ([8]; listed as P1pal12) was “not observed”.
For `CCCCCCCCCCCCCCCC(=O)N[C@@H](CCCNC(=N)N)C(=O)N[C@@H](CCSC)C(=O)N[C@@H](CC(C)C)C(=O)N[C@@H](CCCNC(=N)N)C(=O)N[C@@H](CO)C(=O)N[C@@H](CO)C(=O)N[C@@H](C)C(=O)N[C@@H](CCSC)C(=O)N[C@@H](CC(=O)O)C(=O)N[C@@H](CCC(=O)O)C(=O)N[C@@H](CC(N)=O)C(=O)N[C@@H](CO)C(=O)N[C@@H](CCC(=O)O)C(=O)N[C@@H](CCCCN)C(=O)N[C@@H](CCCCN)C(=O)N[C@@H](CCCNC(=N)N)C(=O)N[C@@H](CCCCN)C(=O)N[C@@H](CCCNC(=N)N)C(=O)N[C@@H](C)C(=O)N[C@H](C(=O)N[C@@H](Cc1ccccc1)C(N)=O)[C@@H](C)CC` [Pepducin P2pal-21F], the inhibition of chemoinvasion [1] was 90%, the “activation of PAR1 (InsP)” value (PAR1 [9]; COS7 cells, FIG. 2G) was “activated PAR1” and the “activation of PAR4 (InsP)” value (PAR4 [10]; COS7 cells) was “not PAR4”.
With thrombin [reference compound] the EC50 (murine platelets (PAR4)) was 0.6 nM, the “InsP stimulation of WT PAR1 (100%)” value (PAR1 [9]; 0.1 nM thrombin) was 9.6 fold and the “shift of potency on delta377 mutant” value (delta377 PAR1) was 22 fold. For the same compound, the “full extracellular agonist-stimulated InsP response” value (PAR4 [10]; 10 nM thrombin) was 3.1 fold, the “loss of efficacy on S309P mutant” value (S309P PAR1) was 1.6 fold and the “loss of potency on S309P mutant” value (S309P PAR1) was 17 fold. For the same compound, the “full PAR1 thrombin response (InsP stimulation) of individual experiments” value (PAR1 [11]) was 7.6 fold and 9.4 fold and 12.4 fold and 18 fold and 9.5 fold and 5.2 fold.
